Where two headings read alike, the source gives them in different places.
Assays:
[1] = tested on: AR42J cells; experiment: Amylase content and CCK response of AR42J cells after 72 h treatment; assay type: cell-based, rat
Procedure: Amylase Assay. For amylase determination, cells were washed free of medium with 2 ml PBS. Incubation was then carried out in DMEM containing 15 mM HEPES, 0.2% BSA and 0.01% soybean trypsin inhibitor. CCK (1 nM) was added for 50 min at 37° C. The incubation medium was then immediately removed for amylase determination and the cells were again washed in 2 ml ice-cold PBS. Lysate buffer containing (in mM) 130 Tris-HCl, 10 CaCl2, 75 NaCl, and 0.2% Triton X-100 (pH 8.0) was added to the cells and the lysates were then collected for total amylase (Ceska et al., 1969). The released amylase was expressed as the percentage of the total amylase in the cells.

[2] = tested on: AR42J cells; experiment: Protein tyrosine phosphorylation in AR42J cells; assay type: cell-based, rat; details: 5 min treatment
Procedure: Tyrosine Phosphorylation Studies. […] Then the medium was removed and fresh KRBB was added, followed by placing the cell on a 37° C. hot plate for 5 min. After addition of various reagents (see FIG. 24) for 5 min the reaction was terminated by submersion of the dishes in liquid nitrogen. The frozen cells were scraped and lysed in RIPA buffer. […] The blots were developed using the ECL chemiluminescence detection system (Amersham).

[3] = tested on: Wistar rats; experiment: Intravenous bolus of exendin-4 or GLP-1, plasma insulin in fasted anesthetized rats; assay type: in vivo, rat; details: for time by which insulin levels return to baseline: 0.4 nmol/kg iv bolus; for urine output during the study: iv bolus, not quantitated
Procedure: Protocols. Wistar rats were fasted overnight. Following anesthesia with 50 mg/kg pentobarbital, a catheter was placed in the femoral artery for blood sampling. A bolus of either exendin-4 or GLP-1 was given into the saphenous vein (iv) over 30 sec to 12 animals, while a bolus of normal saline (NaCl) was given to the other six. The order of the injections was rotated. Blood (taken at −5, 0, 2, 5, 15, 30, 60, 120, and 180 min) was drawn into heparinized tubes containing EDTA and aprotinin for insulin determination (See Example 1). Animals were acclimated to the facility for at least 2 days.
Assays. Plasma glucose was measured by the glucose oxidase method (Wang et al., 1997). Insulin was measured by RIA as previously described (See Example 1). Hb A1c was assayed using a BIO-RAD (Herculas Calif.) DiaSTAT machine which uses low pressure cation exchange chromatography in conjunction with gradient elution to separate hemoglobin subtypes and variants from hemolyzed blood. The separated hemoglobin fractions were monitored by means of absorption of light at 415 nm.
Statistical methods. All results are given as mean±SEM. T tests were based on the results of an F test that looked at the equality of variance of the two means. […] For determination of the EC50 the basal plasma insulin levels were subtracted and the remaining activity at each concentration was expressed as a percent of the maximal activity (achieved by an excess of peptide). This was then transformed into a logit format where logit=ln (% activity/[100-% activity]) and was plotted as a function of the log concentration of the compound.

[4] = tested on: AR42J cells; experiment: Amylase release from AR42J cells; assay type: cell-based, rat
Procedure: Cell Culture. AR42J cells were maintained in Dulbecco's modified Eagle's medium (Gibco, Grand Island, N.Y.) (DMEM) supplemented with 10% Fetal Calf Serum, 100 IU/ml penicillin, 100 μg/ml streptomycin and 2 mM glutamine. Cells from passage 23–36 were used throughout this study.
Amylase Assay. For amylase secretion, cells were washed free of medium with 2 ml phosphate buffered saline (PBS). Incubation was then carried out in DMEM containing 15 mM HEPES, 0.2% bovine serum albumin (BSA) and 0.01% soybean trypsin inhibitor. The hormones and reagents of interest were added for 50 min at 37° C. The incubation medium was then immediately removed for amylase determination and the cells were again washed in 2 ml ice-cold PBS. […] The released amylase was expressed as the percentage of the total amylase activity of the cells.

[5] = Procedure: The rats were implanted with an Alzet micro-osmotic pump (Alza Corp., Palo Alto, Calif.) in the interscapular region for 48 hrs. […] Control animals received normal saline in their pumps and received their infusion for the same length of time.
Assays. Plasma glucose was measured by the glucose oxidase method (Egan et al., 1991). […] The amount of cellular proteins was measured using the Bradford method (Bio-Rad Richmond, Calif.) using bovine γ-globulin as standard.

[6] = tested on: AR42J cells; experiment: Intracellular calcium in single AR42J cells (indo-1); assay type: cell-based, rat
Procedure: Measurement of intracellular calcium, [Ca^2+]l. AR42J cells were loaded with the fluorescent Ca^2+ probe, indo-1 acetoxymethyl ester (indo-1/AM). […] Both loading with indo-1 and the experiments were carried out at room temperature (22–24° C.). […] The emission field was restricted to a single cell. Indo-1 was excited at 350±5 nm every 5 ms, and the fluorescence emission was split into wavelength bands of 410±5 and 490±5 nm. […] The cell autofluorescence was assessed in a large number of indo-1 non-loaded cells from the same batch. […] Routinely, the cells were exposed to the test solution for 240–300s. Thereafter, the test solution was washed out, while [Ca^2+]l was monitored for additional 120–180s. The test solutions were prepared just prior to the experiment by adding the hormones in standard bathing solution.

[7] = tested on: islets of Langerhans; experiment: cAMP determinations in isolated islets; assay type: cell-based, rat
Procedure: cAMP determinations. Islets of Langerhans were harvested from Wistar rats (Perfetti et al., 1995) and batches of 25 islets were then incubated for 1 h at 37° C. in a buffer containing (mM) 140 NaCl, 5 KCl, 1 NaPO4 1 MgSO4, 5 glucose, 2 CaCl2, 20 HEPES, buffer (pH 7.4) and 0.1% bovine serum albumin. Following this, they were incubated in the same buffer for 1 h in the presence of GLP-1 (1 nM) or exendin-4 (1 nM). Some batches of islets were then washed three times with ice-cold phosphate buffer saline (PBS) and lysed with 1 ml ice-cold […] perchloric acid. Other batches were washed three times in the buffer at 37° C. to remove peptide and left another 15 min before being washed three times in ice-cold PBS followed by lysis with the perchloric acid. The lysates (950 μl) were then transferred to microcentrifuge tubes and cAMP measured as previously described (See Example 1) using a cAMP [^3H] assay kit (Amersham).

[8] = tested on: rat acinar cells; details: Malhotra et al. 1992, cited from earlier work

## CC[C@H](C)[C@H](NC(=O)[C@H](Cc1ccccc1)NC(=O)[C@H](CCC(=O)O)NC(=O)[C@H](CCCCN)NC(=O)[C@H](C)NC(=O)[C@H](C)NC(=O)[C@H](CCC(N)=O)NC(=O)CNC(=O)[C@H](CCC(=O)O)NC(=O)[C@H](CC(C)C)NC(=O)[C@H](Cc1ccc(O)cc1)NC(=O)[C@H](CO)NC(=O)[C@H](CO)NC(=O)[C@@H](NC(=O)[C@H](CC(=O)O)NC(=O)[C@H](CO)NC(=O)[C@@H](NC(=O)[C@H](Cc1ccccc1)NC(=O)[C@@H](NC(=O)CNC(=O)[C@H](CCC(=O)O)NC(=O)[C@H](C)NC(=O)[C@@H](N)Cc1c[nH]cn1)[C@@H](C)O)[C@@H](C)O)C(C)C)C(=O)N[C@@H](C)C(=O)N[C@@H](Cc1c[nH]c2ccccc12)C(=O)N[C@@H](CC(C)C)C(=O)N[C@H](C(=O)N[C@@H](CCCCN)C(=O)NCC(=O)N[C@@H](CCCNC(=N)N)C(N)=O)C(C)C [GLP-1]
[1]; GLP-1 added together with dexamethasone, 72 h
  total amylase content: 7.76 U/1
[1]; cells pretreated with GLP-1 for 72 h
  acute amylase response to CCK (1 nM): decreased
[2]
  effect on protein tyrosine phosphorylation: did not have any effect
[3]
  time by which insulin levels return to baseline: ≤ 10 min
  urine output during the study: urinated little if any
[4]; 50 min, glucagon 10 or 100 nM, GLP-1 10 nM, insulin 100 nM, 8-Br-cAMP 100 nM, vanadate 1 mM
  effect on amylase release when given alone: did not influence amylase release
[4]; combined with CCK (1 nM), genestein 300 μM, vanadate 1 mM
  effect on CCK-induced amylase release: did not influence amylase release
[4]; pre-incubation 8, 24, 48 or 72 h with GLP-1 (10 nM) and insulin (100 nM)
  basal or CCK (1 nM)-induced amylase release after pre-incubation: did not increase
[5]; 120 min after removal of pumps
  plasma GLP-1 before commencement of glucose tolerance testing: below the level of detectability
[5]; during infusion, fasting levels 10–20 pmol/l
  plasma GLP-1 levels relative to fasting levels: approximately 6 times
[6]; single cells
  peak [Ca2+]i amplitude, increase over resting indo-1 fluorescence ratio (IFR): 1.5–2.5 fold
[6]; single cells, CCK 1 nM, glucagon 10 nM
  AR42J cells showing [Ca2+]i response: approximately 50%
[7]
  cAMP levels 15 min after removal of peptide by three washes: returned to baseline
  concentration of maximum cAMP response: 1 nM

## exendin-4
[8]; CCK alone vs 10^−8 M exendin-4 and CCK together
  total amylase released: 16%
[8]
  concentration at which increased cAMP was seen: 10^−8 M
[3]; 0.4 nmol/kg iv
  maximal insulin response compared with GLP-1: approximately doubled
[3]
  time by which insulin levels return to baseline: ≤ 60 min
  urine output during the study: obvious increase in urine output
[4]
  effect on amylase release when given alone: did not appear to influence amylase release
[6]
  potency on [Ca2+]i relative to GLP-1: approximately one order of magnitude more potent
[7]
  cAMP levels 15 min after removal of peptide by three washes: returned to baseline
[7]; 1 nM, 1 h
  cAMP levels relative to GLP-1: approximately 3 fold

From patent US7056734B1, “Differentiation of non-insulin producing cells into insulin producing cells by GLP-1 or exendin-4 and uses thereof” (The United States of America as represented by the …, priority 1998, dated 2006)
